Where two headings read alike, the source gives them in different places. No end group written: not given here.
Legend:
[1] = Collateral vessel presentation after femoral artery removal; assay type: in vivo, rats; conditions: 5-10 min after removal of femoral artery part; local 1 min bath (bepecin 10 μg/kg, L-arginine 100 mg/kg, L-NAME 5 mg/kg)
Excerpt: Bepecin has a particular beneficial effect after large blood vessel removal. Unlike L-NAME and L-arginine, bepecin rapidly bridges defect between the stumps of the vessel, thus even in the case of the worst scenario, rapidly reorganizing blood supply. Part of femoral artery in rats (between a. epigastrica caudalis and a. femoralis circumflexa lateralis) was removed in order to investigate collateral vessel presentation within vascular defect following formation of critical size vascular defect. Collateral vessel presentation within vascular defect was assessed according to the method described for microangiographic assessment in Cardiovasc Res. 1997 September; 35(3): 547-52. Thermographic imaging was performed using an infrared camera.

in vitro = conditions: artificial gastric juice with pepsin, 37° C.
[2] = 37° C.; for Pentadecapeptide content decrement (rel. %) in gastric juice at pH = 2.0, 2.5 hours: 150 min; for Pentadecapeptide content decrement (rel. %) in gastric juice at pH = 4.0, 6 hours: 360 min; for Pentadecapeptide content decrement (rel. %) in gastric juice at pH = 4.0, 7 hours: 420 min; for Pentadecapeptide content decrement (rel. %) in gastric juice at pH = 4.0, 8 hours: 480 min; for Pentadecapeptide content decrement (rel. %) in gastric juice at pH = 2.0, 1.5 hours: 90 min
Acute toxicity = assay type: in vivo, Wistar Albino rats; conditions: 1 g/kg body weight, intraperitoneally, intravenously or intragastrically
[3] = Accelerated ageing at 50° C. and relative humidity of 65%; assay type: physicochemical
[4] = Stability in water at 100° C., 1 hour; assay type: physicochemical
Experimental: (§1) This addition will be in the range from 0.5 mg to 3.0 mg per 1 mg of bepecin. […] The stability of bepecin salt with L-arginine in water solutions was determined after incubation of aqueous salt solutions in concentration 1 g/100 ml, at 50° C., and in a separate test in very stringent conditions: at 100° C., where the decomposition was determined after one hour.

[5] = simulated gastric fluid, 37° C.
[6] = Stability in water solutions (1 g/100 ml) at 50° C.; assay type: physicochemical; conditions: for Pentadecapeptide content decrement in water at 50° C./time (hours): 20: 20 hours; for Pentadecapeptide content decrement in water at 50° C./time (hours): 65: 65 hours; for Pentadecapeptide content decrement in water at 50° C./time (hours): 148: 148 hours; for Pentadecapeptide content decrement in water at 50° C./time (hours): 388: 388 hours; for Pentadecapeptide content decrement in water at 50° C./time (hours): start/0: start/0 hours
Experimental: as §1

[7] = 1 g/100 ml of water, 20° C., 253.7 nm, 70 min
HSV-1 and HSV-2 = assay: Newborn mice, intracerebral inoculation with HSV-1 and HSV-2; assay type: in vivo; conditions: lethally infected newborn mice; agents applied 48 or 72 hours after viral infection; bepecin 10 and 100 μg/kg, acyclovir 10 and 100 mg/kg
[8] = Anaphylactoid reaction induced by dextran and/or egg white; assay type: in vivo, rats, mouse; conditions: dextran and/or egg white i.v.; bepecin 10 μg, 1 μg, 10 ng, 10 pg/kg; clomipramine 20 mg/kg, cimetidine 10 mg/kg alone
[9] = Bleeding and thrombocytopenia after amputation; assay type: in vivo, rats; conditions: bepecin by itself
Experimental: Bepecin was administered intraperitoneally, intravenously or intragastrically (10 μg/kg, 10 ng/kg body weight).

[10] = intravenously, orally or intraperitoneally, 10 ng to 100 mg/kg; cited from earlier work
[11] = pH 2, Pentadecapeptide content decrement (rel. %) in gastric juice at pH = 2.0, 1.0 hours, pH 2.0, 1.0 h
[12] = pH 2, Pentadecapeptide content decrement (rel. %) in gastric juice at pH = 2.0, 2.0 hours, pH 2.0, 2.0 h
[13] = pH 4, Pentadecapeptide content decrement (rel. %) in gastric juice at pH = 4.0, 3 hours, pH 4.0, 3 h
[14] = pH 2, Pentadecapeptide content decrement (rel. %) in gastric juice at pH = 2.0, 0.5 hours, pH 2.0
[15] = pH 3, Pentadecapeptide content decrement (rel. %) in gastric juice at pH = 3.0, 0.5 hours, pH 3.0
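For Pentadecapeptide content decrement (rel. %) in gastric juice at pH = 2.0, 0 hours in this document: peptide salt at 10 mg/5 ml incubated in artificial gastric juice (HCl, NaCl, pepsin 1.0 g/l) at the listed pH and 37° C, peptide content tracked over time.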
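For Pentadecapeptide content decrement (rel. %) in gastric juice at pH = 2.0, 2.5 hours in this document: peptide salt at 10 mg/5 ml incubated in artificial gastric juice (HCl, NaCl, pepsin 1.0 g/l) at the listed pH and 37° C, peptide content tracked over time.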
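For Pentadecapeptide content decrement (rel. %) in gastric juice at pH = 3.0, 0 hours in this document: peptide salt at 10 mg/5 ml incubated in artificial gastric juice (HCl, NaCl, pepsin 1.0 g/l) at the listed pH and 37° C, peptide content tracked over time.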
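For Pentadecapeptide content decrement (rel. %) in gastric juice at pH = 3.0, 3.0 hours in this document: peptide salt at 10 mg/5 ml incubated in artificial gastric juice (HCl, NaCl, pepsin 1.0 g/l) at the listed pH and 37° C, peptide content tracked over time.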

COC(=O)[C@@H](N)CCCNC(=N)N[N+](=O)[O-] [L-NAME]
Collateral vessel presentation within vascular defect [1]: no collateral vessels are present

GEPPPGKPADDAGLV [Arg-BPC, bepecin L-arginine salt (1:2)]
remaining at 1 h (in vitro; [11]): 13.5% | remaining at 1.5 h, 10 mg/5 ml (in vitro; pH 2, Pentadecapeptide content decrement (rel. %) in gastric juice at pH = 2.0, 1.5 hours, pH 2.0, 1.5 h): 8.2% | remaining at 2 h (in vitro; [12]): 6% | remaining at 4 h, 10 mg/5 ml (in vitro; pH 3, Pentadecapeptide content decrement (rel. %) in gastric juice at pH = 3.0, 4.0 hours, pH 3.0, 4.0 h): 87.2% | remaining at 5 h, 10 mg/5 ml (in vitro; pH 3, Pentadecapeptide content decrement (rel. %) in gastric juice at pH = 3.0, 5.0 hours, pH 3.0, 5.0 h): 84.9% | remaining at 3 h, 10 mg/5 ml (in vitro; [13]): 98.7% | remaining at 4 h, 10 mg/5 ml (in vitro; pH 4, Pentadecapeptide content decrement (rel. %) in gastric juice at pH = 4.0, 4 hours, pH 4.0, 4 h): 96.1% | remaining at 5 h, 10 mg/5 ml (in vitro; pH 4, Pentadecapeptide content decrement (rel. %) in gastric juice at pH = 4.0, 5 hours, pH 4.0, 5 h): 89.8% | Pentadecapeptide content decrement (rel. %) in gastric juice at pH = 2.0, 0 hours [2]: 100 rel. % | Pentadecapeptide content decrement (rel. %) in gastric juice at pH = 2.0, 2.5 hours [2]: 4.9 rel. % | Pentadecapeptide content decrement (rel. %) in gastric juice at pH = 3.0, 0 hours [2]: 100 rel. % | Pentadecapeptide content decrement (rel. %) in gastric juice at pH = 3.0, 3.0 hours ([2]; 180 min): 90.0 rel. % | Pentadecapeptide content decrement (rel. %) in gastric juice at pH = 4.0, 0 hours ([2]; pH 4.0): 100 rel. % | Pentadecapeptide content decrement (rel. %) in gastric juice at pH = 4.0, 6 hours ([2]; pH 4.0): 84.6 rel. % | Pentadecapeptide content decrement (rel. %) in gastric juice at pH = 4.0, 7 hours ([2]; pH 4.0): 73.5 rel. % | Pentadecapeptide content decrement (rel. %) in gastric juice at pH = 4.0, 8 hours ([2]; pH 4.0): 67.2 rel. % | Acute toxicity (Acute toxicity): no toxicity and no adverse effects | Pentadecapeptide content decrement in standing at 50° C. and relat. humidity 65%: 60 days [3]: 98.96% | Pentadecapeptide content decrement in standing at 50° C. and relat. humidity 65%: 90 days [3]: 99.07% | Pentadecapeptide content decrement in water at 100° C. - 1 hour: after 1 hour ([4]; after 1 hour): 99.08% (unchanged!) | Pentadecapeptide content decrement in water at 100° C. - 1 hour: start ([4]; start): 99.05% | remaining at 0.5 h [5, 14]: 30.2% | remaining at 0.5 h [5, 15]: 98.1% | remaining at 1 h ([5]; pH 4, Pentadecapeptide content decrement (rel. %) in gastric juice at pH = 4.0, 1 hours, pH 4.0, 1 h): 99.9% | remaining at 2 h ([5]; pH 4, Pentadecapeptide content decrement (rel. %) in gastric juice at pH = 4.0, 2 hours, pH 4.0, 2 h): 99.5% | Pentadecapeptide content decrement in water at 50° C./time (hours): 20 [6]: 98.97% | Pentadecapeptide content decrement in water at 50° C./time (hours): 65 [6]: 99.04% | Pentadecapeptide content decrement in water at 50° C./time (hours): 148 [6]: 99.10% | Pentadecapeptide content decrement in water at 50° C./time (hours): 388 [6]: 99.01% | pH ([6]; aqueous salt solution 1 g/100 ml): 7.35 | Pentadecapeptide content decrement in water at 50° C./time (hours): start/0 [6]: 99.05% | Stability of aqueous solution under ultraviolet light [7]: stable

GEPPPGKPADDAGLV [BPC Na salt]
Pentadecapeptide content decrement (rel. %) in gastric juice at pH = 2.0, 0 hours [2]: 100 rel. % | Pentadecapeptide content decrement (rel. %) in gastric juice at pH = 2.0, 1.5 hours [2]: 4.4 rel. % | Pentadecapeptide content decrement (rel. %) in gastric juice at pH = 2.0, 2.5 hours [2]: 2.7 rel. % | Pentadecapeptide content decrement (rel. %) in gastric juice at pH = 3.0, 0 hours [2]: 100 rel. % | Pentadecapeptide content decrement (rel. %) in gastric juice at pH = 3.0, 3.0 hours ([2]; 180 min): 40.2 rel. % | Pentadecapeptide content decrement (rel. %) in gastric juice at pH = 4.0, 0 hours ([2]; pH 4.0): 100 rel. % | Pentadecapeptide content decrement (rel. %) in gastric juice at pH = 4.0, 3 hours ([2]; pH 4.0, 3 h, 180 min): 94.6 rel. % | Pentadecapeptide content decrement (rel. %) in gastric juice at pH = 4.0, 6 hours ([2]; pH 4.0): 76.3 rel. % | Pentadecapeptide content decrement (rel. %) in gastric juice at pH = 4.0, 7 hours ([2]; pH 4.0): 68.2 rel. % | Pentadecapeptide content decrement (rel. %) in gastric juice at pH = 4.0, 8 hours ([2]; pH 4.0): 60.9 rel. %

N=C(N)NCCC[C@H](N)C(=O)O [L-arginine]
Collateral vessel presentation within vascular defect [1]: Tiny collateral vessels were present, yet without interconnections

Bepecin L-Lysine Salt (1:3) [Lys-BPC]
Pentadecapeptide content decrement in standing at 50° C. and relat. humidity 65%: 0 day ([3]; 0 day): 99.47% | Pentadecapeptide content decrement in standing at 50° C. and relat. humidity 65%: 10 days ([3]; 10 days): 99.24% | Pentadecapeptide content decrement in standing at 50° C. and relat. humidity 65%: 30 days ([3]; 30 days): 99.27% | Pentadecapeptide content decrement in standing at 50° C. and relat. humidity 65%: 60 days [3]: 98.90% | Pentadecapeptide content decrement in standing at 50° C. and relat. humidity 65%: 90 days [3]: 99.28% | Pentadecapeptide content decrement in water at 50° C./time (hours): 20 [6]: 99.40% | Pentadecapeptide content decrement in water at 50° C./time (hours): 65 [6]: 99.09% | Pentadecapeptide content decrement in water at 50° C./time (hours): 148 [6]: 99.35% | Pentadecapeptide content decrement in water at 50° C./time (hours): 388 [6]: 99.01% | Pentadecapeptide content decrement in water at 50° C./time (hours): start/0 [6]: 99.07%

Nc1nc2c(ncn2COCCO)c(=O)[nH]1 [acyclovir]
Survival time (max.) (HSV-1 and HSV-2): 115 h | Survival time (min.) (HSV-1 and HSV-2): 105 h

CN/C(=N/CCSCc1nc[nH]c1C)NC#N [cimetidine]
Effect on anaphylactoid reactions [8]: only poorly effective or even ineffective

H-GEPPPGKPADDAGLV-OH [Bepecin]
Coagulation parameters [9]: does not affect the coagulation parameters by itself

GEPPPGKPADDAGLV [BPC acetate]
remaining at 0.5 h, 10 mg/5 ml (in vitro; [14]): 21.4% | remaining at 0.5 h, 10 mg/5 ml (in vitro; [15]): 41.7% | Pentadecapeptide content decrement (rel. %) in gastric juice at pH = 2.0, 0 hours [2]: 100 rel. % | Pentadecapeptide content decrement (rel. %) in gastric juice at pH = 2.0, 1.5 hours [2]: 4.75 rel. % | Pentadecapeptide content decrement (rel. %) in gastric juice at pH = 2.0, 2.5 hours [2]: 2.1 rel. % | Pentadecapeptide content decrement (rel. %) in gastric juice at pH = 3.0, 0 hours [2]: 100 rel. % | Pentadecapeptide content decrement (rel. %) in gastric juice at pH = 4.0, 0 hours ([2]; pH 4.0): 100 rel. % | Pentadecapeptide content decrement (rel. %) in gastric juice at pH = 4.0, 6 hours ([2]; pH 4.0): 48.8 rel. % | Pentadecapeptide content decrement (rel. %) in gastric juice at pH = 4.0, 7 hours ([2]; pH 4.0): 44.6 rel. % | Pentadecapeptide content decrement (rel. %) in gastric juice at pH = 4.0, 8 hours ([2]; pH 4.0): 38.0 rel. % | remaining at 1 h [5, 11]: 8.2% | remaining at 2 h [5, 12]: 2.46% | remaining at 3 h ([5]; pH 3, Pentadecapeptide content decrement (rel. %) in gastric juice at pH = 3.0, 3.0 hours, pH 3.0, 3.0 h): 2.5% | remaining at 3 h [5, 13]: 72.5%

Gly Glu Pro Pro Pro Gly Lys Pro Ala Asp Asp Ala Gly Leu Val (GEPPPGKPADDAGLV; also: salts with basic amino acids) [Peptide bepecin]
Toxic changes (LD50, acute, subchronic and chronic toxicity) [10]: did not induce any toxic changes

CN(C)CCCN1c2ccccc2CCc2ccc(Cl)cc21 [clomipramine]
Effect on anaphylactoid reactions [8]: only poorly effective or even ineffective

From patent publication US9850282B2, “Stable pentadecapeptide salts, a process for preparation thereof, a use thereof in the manufacture of pharmaceutical preparations and a use thereof in therapy” (priority 2013, dated 2017)
